We go through two compounds from ChEMBL document CHEMBL3217690, “Superiority of a novel EGFR targeted covalent inhibitor over its reversible counterpart in overcoming drug resistance” (Medchemcomm, 2012).

For orientation: inhibition means how much of the control response was suppressed. A word on the IC50: it is the concentration at which inhibition is half-maximal. The GI50 is the concentration giving 50% growth inhibition. In general, EC50 refers to the midpoint of the concentration-response curve. Low readings indicate greater potency, high ones weaker potency.

Molecules are shown by their SMILES. Active and inactive are the calls of the source. No cut-off for these calls is given here.

Experiment [1] deals with T1, Epidermal growth factor receptor (Homo sapiens, UniProt P00533). In words: Irreversible inhibition of EGF-induced EGFR autophosphorylation in human A431 cells assessed as residual activity compound preincubated at 1 uM for 1 to 8 hrs measured after 1 hr post compound washout by immunoblotting method. The settings on record: A-431. It is filed as cell-based.
T1 sequence (P00533 whole entry): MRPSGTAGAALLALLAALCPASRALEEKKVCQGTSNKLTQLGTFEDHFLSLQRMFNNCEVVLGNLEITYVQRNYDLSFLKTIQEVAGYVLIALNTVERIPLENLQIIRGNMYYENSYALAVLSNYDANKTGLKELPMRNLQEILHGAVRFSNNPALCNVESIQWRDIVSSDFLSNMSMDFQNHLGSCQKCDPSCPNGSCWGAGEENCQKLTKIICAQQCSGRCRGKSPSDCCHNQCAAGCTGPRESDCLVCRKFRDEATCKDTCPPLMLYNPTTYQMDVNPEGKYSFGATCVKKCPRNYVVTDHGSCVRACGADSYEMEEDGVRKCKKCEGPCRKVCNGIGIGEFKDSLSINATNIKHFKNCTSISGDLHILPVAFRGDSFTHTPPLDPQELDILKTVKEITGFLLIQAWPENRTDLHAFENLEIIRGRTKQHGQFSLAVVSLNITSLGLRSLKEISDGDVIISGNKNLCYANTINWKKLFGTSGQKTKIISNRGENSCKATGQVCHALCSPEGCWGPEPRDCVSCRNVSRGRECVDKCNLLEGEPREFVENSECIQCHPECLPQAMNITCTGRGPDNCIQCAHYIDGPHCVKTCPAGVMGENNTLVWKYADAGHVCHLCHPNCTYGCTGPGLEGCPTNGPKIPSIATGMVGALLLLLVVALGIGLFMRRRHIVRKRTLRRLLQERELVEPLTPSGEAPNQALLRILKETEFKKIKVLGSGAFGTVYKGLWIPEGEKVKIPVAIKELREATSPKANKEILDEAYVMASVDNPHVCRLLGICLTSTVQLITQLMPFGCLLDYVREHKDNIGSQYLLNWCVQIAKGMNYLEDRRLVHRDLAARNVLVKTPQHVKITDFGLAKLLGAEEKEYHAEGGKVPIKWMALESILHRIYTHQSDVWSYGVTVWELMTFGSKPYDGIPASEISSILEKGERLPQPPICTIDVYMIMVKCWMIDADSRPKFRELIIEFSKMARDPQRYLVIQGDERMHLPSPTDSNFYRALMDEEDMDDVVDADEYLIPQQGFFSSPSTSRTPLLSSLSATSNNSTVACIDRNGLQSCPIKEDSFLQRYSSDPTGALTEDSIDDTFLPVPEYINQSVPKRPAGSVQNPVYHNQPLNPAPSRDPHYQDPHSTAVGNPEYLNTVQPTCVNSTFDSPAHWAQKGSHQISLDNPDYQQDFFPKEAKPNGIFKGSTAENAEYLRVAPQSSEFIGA
Experiment [2] has as its target T1, Epidermal growth factor receptor. The experiment can be described thus: Inhibition of EGF-induced EGFR-mediated ERK phosphorylation in human A431 cells after 1 hr by immunoblotting method. It is filed as cell-based, A-431. Background: A western blot detects proteins with antibodies after separation by electrophoresis.
A further experiment has as its system A-431. In words: Growth inhibition of human A431 cells harboring wild type EGFR assessed as reduction in cell viability after 72 hrs by CellTiter Glo assay. Type of experiment: functional. Conditions: A-431, 72 h. For orientation: Cellular ATP, detected with luciferase, serves as a proxy for viable cell number.
For a further experiment, the system named is NCI-H1975. In words: Growth inhibition of human NCI-H1975 cells harboring EGFR L858R/T790M mutant assessed as reduction in cell viability after 72 hrs by CellTiter Glo assay. It is filed as functional. The settings on record: NCI-H1975, 72 h.
Experiment [3] is described as follows: Growth inhibition of human HCC827 cells harboring EGFR E746 to E750 deletion mutant assessed as reduction in cell viability after 72 hrs by CellTiter Glo assay. Type of experiment: functional. Conditions: HCC827, 72 h.
Experiment [4] concerns the target T2, Epidermal growth factor receptor (Homo sapiens, UniProt P00533, L858R/T790M). In words: Inhibition of EGF-induced EGFR L858R/T790M mutant-mediated Akt phosphorylation in human […] cells after 1 hr by immunoblotting method. It is filed as cell-based.
Experiment [5] concerns the target T1, Epidermal growth factor receptor. In words: Inhibition of EGF-induced EGFR autophosphorylation in human A431 cells at 1 uM after 2 mins by immunoblotting method. It is filed as cell-based. Conditions: A-431.
Experiment [6] is described as follows: Inhibition of EGF-induced EGFR E746 to E750 deletion mutant autophosphorylation in human HCC827 cells after 1 hr by immunoblotting method. Type of experiment: cell-based. Conditions: HCC827, 1 h.
In experiment [7] the target is T1, Epidermal growth factor receptor. In words: Inhibition of wild type EGFR (unknown origin) using Y12-Sox peptide as substrate preincubated for 30 mins by fluorescence assay.
Experiment [8] is described as follows: Inhibition of EGF-induced EGFR E746 to E750 deletion mutant-mediated Akt phosphorylation in human HCC827 cells after 1 hr by immunoblotting method. It is filed as cell-based. Conditions: HCC827, 1 h.
A short description of experiment [9]: Inhibition of EGF-induced EGFR E746 to E750 deletion mutant-mediated pS6 phosphorylation in human HCC827 cells after 1 hr by immunoblotting method. It is filed as cell-based. The settings on record: HCC827, 1 h.
The target of experiment [10] is T2, Epidermal growth factor receptor. The experiment can be described thus: Inhibition of EGF-induced EGFR L858R/T790M mutant-mediated pS6 phosphorylation in human […] cells after 1 hr by immunoblotting method. Type of experiment: cell-based.
Experiment [11] shares this target. In words: Inhibition of EGF-induced EGFR L858R/T790M mutant-mediated ERK phosphorylation in human […] cells after 1 hr by immunoblotting method. Type of experiment: cell-based.
The target is the same in experiment [12]. In words: Inhibition of EGF-induced EGFR L858R/T790M mutant autophosphorylation in human […] cells after 1 hr by immunoblotting method. It is filed as cell-based.
The species named for a further experiment is Homo sapiens. In words: Covalent binding affinity to EGFR C773S mutant (unknown origin) after 1 hr by mass spectrometry.
The target in experiment [13] is T1, Epidermal growth factor receptor. In words: Covalent binding affinity to wild type EGFR (unknown origin) after 1 hr by mass spectrometry.
Experiment [14] has the same target. The experiment can be described thus: Inhibition of EGF-induced EGFR autophosphorylation in human A431 cells at 1 uM after 30 mins by immunoblotting method. It is filed as cell-based. Conditions: A-431.
For experiment [15] the target is unchanged. The experiment can be described thus: Inhibition of EGF-induced EGFR autophosphorylation in human A431 cells after 1 hr by immunoblotting method. It is filed as cell-based, A-431.
Experiment [16] shares this target. In words: Inhibition of EGF-induced EGFR-mediated pS6 phosphorylation in human A431 cells after 1 hr by immunoblotting method. It is filed as cell-based, A-431.
The target is the same in experiment [17]. The experiment can be described thus: Inhibition of EGF-induced EGFR autophosphorylation in human A431 cells at 1 uM after 10 mins by immunoblotting method. Type of experiment: cell-based. The settings on record: A-431.
For experiment [18] the target is unchanged. In words: Inhibition of EGF-induced EGFR-mediated Akt phosphorylation in human A431 cells after 1 hr by immunoblotting method. Type of experiment: cell-based, A-431.
In experiment [19] the target is T2, Epidermal growth factor receptor. The experiment can be described thus: Inhibition of EGFR L858R/T790M mutant (unknown origin) using Y12-Sox peptide as substrate preincubated for 30 mins by fluorescence assay. Type of experiment: protein assay.
Experiment [20] addresses T1, Epidermal growth factor receptor. The experiment can be described thus: Reversible inhibition of EGF-induced EGFR autophosphorylation in human A431 cells assessed as residual activity compound preincubated at 1 uM for 1 hr measured after 1 hr post compound washout by immunoblotting method. Conditions: A-431. Type of experiment: cell-based.
Experiment [21] has the same target. In words: Reversible inhibition of EGF-induced EGFR autophosphorylation in human A431 cells assessed as residual activity compound preincubated at 1 uM for 1 hr measured after 8 hrs post compound washout by immunoblotting method. Type of experiment: cell-based. The settings on record: A-431.

T2 sequence (P00533 25-1210 T790M/L858R limits assumed): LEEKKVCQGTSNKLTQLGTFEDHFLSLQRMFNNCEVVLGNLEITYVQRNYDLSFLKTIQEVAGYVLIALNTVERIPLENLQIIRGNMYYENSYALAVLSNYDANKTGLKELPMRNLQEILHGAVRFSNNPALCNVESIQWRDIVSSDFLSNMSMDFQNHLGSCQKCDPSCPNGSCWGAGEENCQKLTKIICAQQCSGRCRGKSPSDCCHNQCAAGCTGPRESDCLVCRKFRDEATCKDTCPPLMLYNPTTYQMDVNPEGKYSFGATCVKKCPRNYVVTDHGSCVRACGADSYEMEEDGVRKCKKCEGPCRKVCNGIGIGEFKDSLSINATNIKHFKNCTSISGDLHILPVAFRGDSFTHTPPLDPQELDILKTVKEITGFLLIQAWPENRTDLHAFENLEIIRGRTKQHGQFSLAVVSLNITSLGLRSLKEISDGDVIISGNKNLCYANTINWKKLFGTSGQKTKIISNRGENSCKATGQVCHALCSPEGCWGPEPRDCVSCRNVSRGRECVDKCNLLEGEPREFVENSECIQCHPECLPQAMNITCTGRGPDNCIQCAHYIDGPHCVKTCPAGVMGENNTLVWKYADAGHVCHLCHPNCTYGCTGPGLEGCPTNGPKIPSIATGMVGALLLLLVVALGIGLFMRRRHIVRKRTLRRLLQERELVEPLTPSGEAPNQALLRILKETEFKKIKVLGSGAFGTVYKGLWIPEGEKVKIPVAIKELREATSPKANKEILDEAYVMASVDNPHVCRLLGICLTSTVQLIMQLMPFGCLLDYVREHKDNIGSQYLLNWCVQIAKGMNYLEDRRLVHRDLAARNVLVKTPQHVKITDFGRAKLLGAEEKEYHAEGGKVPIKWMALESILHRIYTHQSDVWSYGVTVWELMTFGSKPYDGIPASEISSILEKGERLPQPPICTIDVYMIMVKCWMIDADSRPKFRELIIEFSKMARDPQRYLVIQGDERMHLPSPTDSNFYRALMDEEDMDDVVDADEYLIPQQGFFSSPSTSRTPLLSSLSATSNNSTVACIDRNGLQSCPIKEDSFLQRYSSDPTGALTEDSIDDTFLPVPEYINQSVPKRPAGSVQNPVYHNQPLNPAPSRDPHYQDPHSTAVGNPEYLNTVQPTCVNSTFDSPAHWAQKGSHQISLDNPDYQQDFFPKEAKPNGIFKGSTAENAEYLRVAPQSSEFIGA

Consider `C=CC(=O)Nc1cccc(Nc2cc(Nc3cccc(Br)c3)ncn2)c1`, for which the inhibition entry in experiment [1] and in experiment [14] was “Active” throughout. In addition, the IC50 in experiment [2] is 509 nM; in experiment [7] it was less than 1 nM; in experiment [15], 49 nM; in [16], 511 nM; in experiment [18], 104 nM; in [19], 5.4 nM. The GI50 was 18 nM in the experiment with A-431, 134 nM with NCI-H1975 and less than 5 nM in experiment [3]. The EC50 is 166 nM in experiment [4]; less than 20 nM in [6]; less than 20 nM in experiment [8]; less than 20 nM in experiment [9]; 427 nM in experiment [10]; 172 nM in [11]. In addition, the EC50 in experiment [12] was 441 nM. The values for the inhibition in experiment [5] and in experiment [17] were 50% and 90%, respectively. In the experiment listed under Homo sapiens, the result was inactive. For the same compound, in experiment [13], the Activity is more than 80%.

On to `CCC(=O)Nc1cccc(Nc2cc(Nc3cccc(Br)c3)ncn2)c1`, for which the IC50 in [2] was 1160 nM; in [7], less than 1 nM; in experiment [15], 166 nM; in [16] it was 243 nM; in [18] it was 136 nM; in [19] it was more than 5000 nM. The figures for the GI50 (in the experiment on A-431; with NCI-H1975; in experiment [3]) were 18 nM, 89 nM and 15 nM, respectively. For the same compound, the EC50 is more than 4580 nM in experiment [4]; 27 nM in experiment [6]; less than 20 nM in experiment [8]; less than 20 nM in [9]; more than 5000 nM in experiment [10]; more than 5000 nM in experiment [11]. For the same compound, the EC50 in experiment [12] was more than 5000 nM. Further, the figures for the Activity in experiment [20] and in experiment [21] were 20% and 60%, respectively. The result in [13] was inactive.
